The results in this text go back to ChEMBL document CHEMBL3792283, “Biphenyl-4-yl-acrylohydroxamic acids: Identification of a novel indolyl-substituted HDAC inhibitor with antitumor activity” (Eur J Med Chem, 2016).

Active and inactive are the calls of the source. No cut-off for these calls is given here.

Assay [1] can be described thus: Antiproliferative activity against human IGROV1 cells assessed as reduction in cell number after 72 hrs by cell counter analysis. Type of assay: functional, cell-based. The settings on record: IGROV-1, 72 h.
Assay [2] can be described thus: Antiproliferative activity against human H460 cells assessed as reduction in cell number after 72 hrs by cell counter analysis. Type of assay: functional, cell-based. The note with it: NCI-H460, 72 h.
Assay [3] relates to HT-29. The experiment in a line: Antiproliferative activity against human HT-29 cells assessed as reduction in cell number after 72 hrs by cell counter analysis. It is filed as functional, cell-based. The settings on record: HT-29, 72 h.
Assay [4] concerns HT-29. Put plainly: Antiproliferative activity against mitoxantrone resistant human HT-29 cells assessed as reduction in cell number after 72 hrs by cell counter analysis. Type of assay: functional, cell-based. The note with it: HT-29, 72 h.
Assay [5] is described as follows: Antiproliferative activity human HCT116 cells assessed as reduction in cell number after 72 hrs by cell counter analysis. It is filed as functional, cell-based. The note with it: HCT-116, 72 h.
For the next assay, the system named is LoVo. The experiment in a line: Antiproliferative activity against human LoVo cells assessed as reduction in cell number after 72 hrs by cell counter analysis. Type of assay: functional, cell-based.
A short description of assay [6]: Antiproliferative activity against human LoVo/DX cells assessed as reduction in cell number after 72 hrs by cell counter analysis. Type of assay: functional, cell-based.
In assay [7] the test system is IGROV-1. Put plainly: Induction of apoptosis in human IGROV1 cells at 1 uM after 72 hrs by TUNEL assay (reference value: 3%). Type of assay: functional.
Assay [8] concerns IGROV-1. Put plainly: Induction of apoptosis in human IGROV1 cells at 0.3 uM after 72 hrs by TUNEL assay (reference value: 3%). It is filed as functional.
The nature of assay [9]: Cell cycle arrest in human IGROV1 cells assessed as accumulation at G1 phase at 0.3 to 1 uM after 72 hrs by propidium iodide staining based flow cytometry. It is filed as functional. The note with it: IGROV-1. Background: In flow cytometry, cells or beads pass a laser one at a time.
A further assay in a line: animal or person. The settings on record: Homo sapiens, HCT-116, po, read-out: TGI. It is filed as functional.
For assay [10], the target named is Histone deacetylase. Put plainly: Inhibition of HDAC in human HeLa nuclear extract using BOC-Ac-Lys-AMC as substrate incubated for 90 mins by fluorescence assay. Type of assay: protein assay.
Another assay addresses Histone deacetylase 2 (Homo sapiens, UniProt Q92769). Put plainly: Inhibition of human recombinant HDAC2 using Fluor de Lys Green as substrate incubated for 30 mins by fluorescence assay.
Assay [11] concerns the target Histone deacetylase. The experiment in a line: Inhibition of HDAC in human HeLa cells using BOC-Ac-Lys-AMC as substrate incubated for 4 hrs by fluorescence assay. Type of assay: cell-based.

Sequence of Histone deacetylase 2 (Q92769 whole entry): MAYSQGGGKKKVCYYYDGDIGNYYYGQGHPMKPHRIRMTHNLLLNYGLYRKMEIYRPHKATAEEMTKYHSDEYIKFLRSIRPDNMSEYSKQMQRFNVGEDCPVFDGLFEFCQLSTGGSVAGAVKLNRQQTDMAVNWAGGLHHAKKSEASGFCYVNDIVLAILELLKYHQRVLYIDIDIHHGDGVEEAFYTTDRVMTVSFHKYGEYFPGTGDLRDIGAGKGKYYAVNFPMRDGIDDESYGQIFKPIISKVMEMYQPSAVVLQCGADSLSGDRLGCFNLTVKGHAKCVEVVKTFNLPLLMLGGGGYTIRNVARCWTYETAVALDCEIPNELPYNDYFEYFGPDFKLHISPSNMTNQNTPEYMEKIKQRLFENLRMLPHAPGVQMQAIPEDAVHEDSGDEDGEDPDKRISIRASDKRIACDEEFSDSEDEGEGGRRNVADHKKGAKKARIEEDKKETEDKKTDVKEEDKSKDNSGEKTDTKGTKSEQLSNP
Description for animal or person: Antitumor activity against human HCT116 cells xenografted in athymic Swiss nude mouse assessed as tumor growth inhibition at 175 mg/kg, po for 5 days a week for 4 weeks relative to control

With `COc1ccc(-c2ccc(/C=C/C(=O)NO)cc2)cc1`, the IC50 amounted to 0.75 µM in assay [1]; 3.7 µM in assay [2]; 1.58 µM in the assay with HT-29 [3]; 1.73 µM in the assay with HT-29 [4]; 0.26 µM in assay [5].
With `O=C(CCCCCCC(=O)Nc1ccccc1)NO` [VORINOSTAT], the IC50 amounted to 2.2 µM in [1] and 0.31 µM in [5].
For `Cc1[nH]c2ccccc2c1/C=C/c1ccccc1-c1ccc(/C=C/C(=O)NO)cc1`, the IC50 in assay [1] turned out to be 0.35 µM; in assay [2] it was 1.41 µM; in the assay on LoVo it was 6.57 µM; in assay [6] it was 4.62 µM; in the assay on HT-29 [3] it was 1.37 µM; in the assay on HT-29 [4], 2.44 µM. The IC50 in assay [5] was determined as 0.27 µM. The results for the Activity in the assay with IGROV-1 [7] and with IGROV-1 [8] were 79% and 34%, respectively. Also, the outcome in assay [9] was Active. For the same compound, the inhibition in vivo at 175 mg/kg in the assay “animal or person” came out at 68%.
In the case of `CC(C)=C(c1ccccc1)c1ccc(/C=C/C(=O)NO)cc1`, the IC50 at Histone deacetylase [10] is 2.6 µM; at Histone deacetylase 2, 11.8 µM; against Histone deacetylase [11], 2.5 µM; in assay [1], 2.5 µM; in assay [2], 5.5 µM; with LoVo, 2.79 µM. For the same compound, the 50% inhibitory concentration (IC50) came out at 4.12 µM in the assay on HT-29 [3] and 2 µM in assay [5].

As a reminder, the IC50 is the midpoint of a concentration-inhibition curve.
